Values of other authors in PMC6044621 (ACS Omega, 2016).

Test system: Cbx7
Details: ref 13c

UNC3866
potency as Cbx7 inhibitor: 97 nM
